Laboratory results: the NIST ThermoML archive (doi:10.1021/je700297c)
± gives the expanded uncertainty stated by the source.

Assay: activity coefficient (dimensionless); of the first substance listed, at infinite dilution; xn = mol fraction of the nth substance listed
Conditions: Liquid, Chromatography, x1 = 0

SMILES	activity coefficient (323 K)	activity coefficient (333 K)	activity coefficient (298 K)	activity coefficient (303 K)
CCCCCCCC [octane] + CCCCCCCCCCCCCCCCCC(=O)[O-].CCCCn1cc[n+](C)c1	2.1 ± 0.2	1.6 ± 0.1	–	–
CCCCCCC [heptane] + CCCC[n+]1ccn(C)c1.O=S(=O)([N-]S(=O)(=O)C(F)(F)F)C(F)(F)F	15.5 ± 1.1	–	–	–
CCOC(C)=O [ethyl acetate] + CCCCn1cc[n+](C)c1.F[B-](F)(F)F	1.7 ± 0.1	–	1.8 ± 0.1	–
CC1CCCCC1 [methylcyclohexane] + CCCCCCCCCCCCCCCC(=O)[O-].CCCCn1cc[n+](C)c1	–	1 ± 0.1	–	–
CCO [ethanol] + CCCCn1cc[n+](C)c1.F[B-](F)(F)F	1 ± 0.1	–	1.1 ± 0.1	–
CCCCCCC [heptane] + CCCCCCCCCCCCCCCC(=O)[O-].CCCCn1cc[n+](C)c1	–	1.4 ± 0.1	–	–
CCCCCC [hexane] + CCCCCCCCCCCCCCCCCC(=O)[O-].CCCCn1cc[n+](C)c1	1.7 ± 0.1	1.4 ± 0.1	–	–
CCOC(C)=O [ethyl acetate] + CCCCCCCC[n+]1ccn(C)c1.F[B-](F)(F)F	0.8 ± 0.1	–	0.9 ± 0.1	–
CCCCCCCC [octane] + CCCCn1cc[n+](C)c1.F[B-](F)(F)F	95.5 ± 6.5	–	117 ± 8	–
CO [methanol] + C[n+]1ccn(CCCC#N)c1.N#CN=C=[N-]	0.3 ± 0.1	–	–	0.3 ± 0.1
c1ccccc1 [benzene] + CCCCCCCC[n+]1ccn(C)c1.F[B-](F)(F)F	0.6 ± 0.1	–	0.7 ± 0.1	–
C1CCOC1 [tetrahydrofuran] + CCCCCCCCCCCCCCCC(=O)[O-].CCCCn1cc[n+](C)c1	–	0.6 ± 0.1	–	–
C1CCOC1 [tetrahydrofuran] + C[n+]1ccn(CCCC#N)c1.O=S(=O)([N-]S(=O)(=O)C(F)(F)F)C(F)(F)F	1.2 ± 0.1	–	–	1.3 ± 0.1
C=CCCCCCC [oct-1-ene] + C[n+]1ccn(CCCC#N)c1.N#CN=C=[N-]	136 ± 9.3	–	–	142 ± 9.8
Cc1ccccc1 [toluene] + CCCC[n+]1ccn(C)c1.O=S(=O)([N-]S(=O)(=O)C(F)(F)F)C(F)(F)F	1.2 ± 0.1	–	–	–
C=CCCCCCC [oct-1-ene] + CCCC[n+]1ccn(C)c1.O=S(=O)([N-]S(=O)(=O)C(F)(F)F)C(F)(F)F	12.3 ± 0.8	–	–	–
CCOC(C)=O [ethyl acetate] + CCCCCCCCCCCCCCCCCC(=O)[O-].CCCCn1cc[n+](C)c1	1.1 ± 0.1	1.1 ± 0.1	–	–

SMILES	activity coefficient (323 K)	activity coefficient (333 K)	activity coefficient (298 K)	activity coefficient (303 K)
C1CCOC1 [tetrahydrofuran] + CCCCCCCC[n+]1ccn(C)c1.F[B-](F)(F)F	0.6 ± 0.1	–	0.7 ± 0.1	–
CCO [ethanol] + CCCC[n+]1ccn(C)c1.O=S(=O)([N-]S(=O)(=O)C(F)(F)F)C(F)(F)F	1.2 ± 0.1	–	–	–
C1CCCCC1 [cyclohexane] + CCCC[n+]1ccn(C)c1.O=S(=O)([N-]S(=O)(=O)C(F)(F)F)C(F)(F)F	6.7 ± 0.5	–	–	–
CC1CCCCC1 [methylcyclohexane] + CCCCn1cc[n+](C)c1.F[B-](F)(F)F	35.5 ± 2.4	–	43.7 ± 3	–
CCCCCCC [heptane] + CCCCn1cc[n+](C)c1.F[B-](F)(F)F	70.3 ± 4.8	–	83.5 ± 5.7	–
CO [methanol] + C[n+]1ccn(CCCC#N)c1.O=S(=O)([N-]S(=O)(=O)C(F)(F)F)C(F)(F)F	1 ± 0.1	–	–	1.1 ± 0.1
CCCCCC [hexane] + CCCCCCCCCCCCCCCC(=O)[O-].CCCCn1cc[n+](C)c1	–	1.3 ± 0.1	–	–
c1ccccc1 [benzene] + CCCCCCCCCCCCCCCC(=O)[O-].CCCCn1cc[n+](C)c1	–	0.7 ± 0.1	–	–
CO [methanol] + CCCCCCCC[n+]1ccn(C)c1.F[B-](F)(F)F	0.3 ± 0.1	–	0.3 ± 0.1	–
C1CCCCC1 [cyclohexane] + C[n+]1ccn(CCCC#N)c1.O=S(=O)([N-]S(=O)(=O)C(F)(F)F)C(F)(F)F	45.9 ± 3.1	–	–	55.4 ± 3.8
CO [methanol] + CCCCn1cc[n+](C)c1.F[B-](F)(F)F	0.7 ± 0.1	–	0.8 ± 0.1	–
CCO [ethanol] + CCCCCCCCCCCCCCCCCC(=O)[O-].CCCCn1cc[n+](C)c1	0.5 ± 0.1	0.4 ± 0.1	–	–
CC1CCCCC1 [methylcyclohexane] + CCCC[n+]1ccn(C)c1.O=S(=O)([N-]S(=O)(=O)C(F)(F)F)C(F)(F)F	9.1 ± 0.6	–	–	–
Cc1ccccc1 [toluene] + CCCCn1cc[n+](C)c1.F[B-](F)(F)F	2.4 ± 0.2	–	2.5 ± 0.2	–
c1ccccc1 [benzene] + C[n+]1ccn(CCCC#N)c1.N#CN=C=[N-]	2.2 ± 0.2	–	–	2.3 ± 0.2
CCCCCC [hexane] + CCCCCCCC[n+]1ccn(C)c1.F[B-](F)(F)F	6.7 ± 0.5	–	8.6 ± 0.6	–
C1CCCCC1 [cyclohexane] + C[n+]1ccn(CCCC#N)c1.N#CN=C=[N-]	58.9 ± 4	–	–	81.7 ± 5.6
